Test results: patent US6664058B2, “Base analogues” (Amersham Biosciences UK Limited, priority 2000, dated 2003)

System: exonuclease free Klenow fragment DNA polymerase I (EFK)
Settings: 40 μM test compound alone or with 4 μM dNTPαS; 33P 15 mer primer / 24 mer template; one unit EFK; 37° C., 3 minutes
Procedure: Primer Extension Assays to Study the Incorporation of Triphosphate 5 by DNA Polymerases
A primer extension assay was used to evaluate the triphosphate 5 as a substrate for exonuclease free Klenow fragment DNA polymerase I (EFK). The assay used a ^33P 5′ end labelled 15 mer primer hybridised to a 24 mer template. The sequences of the primer and template are:
One picomole ^33P labelled primer was hybridised to 2 picomoles of template in ×2 Klenow buffer (100 mM Tris-HCl pH 7.5, 10 mM MgCl2., 10 mM 2-mercaptoethanol) To this was added either 4 μM dNTPαS or 40 μM (test compound 5c) or a mixture of 4 μM dNTPαS and 40 μM (test compound). One unit EFK and 20 mU inorganic pyrophosphatase were used per reaction. Primer alone, primer plus template plus enzyme controls were also carried out. The reactions were incubated at 37° C. for 3 minutes. Reactions were then stopped by the addition of formamide/EDTA stop solution. Reaction products were separated on a 20% polyacrylamide 7M urea gel and the product fragments sized by comparison with the labelled primer and the products of extensions in the presence of 4 μM dNTPαS after exposure to Kodak Biomax autoradiography film.

Cc1cc2c(nn1)NC(=O)N([C@H]1C[C@H](O)[C@@H](COP(=O)(O)OP(=O)(O)OP(=O)(O)O)O1)C2 [compound 5, 6-(β-D-2-Deoxyribofuranosyl)-5-hydro-3-methyl-8H-pyrimido[4,5-c][1,2]pyridazin-7-one-5′-triphosphate]
natural nucleotide in place of which the test compound is incorporated: incorporated in place of dTTP
